This passage reports inhibition and EC50 results from patent publication US8778954B2, “Phenylpyridine derivative and medicinal agent comprising same” (Kowa Company, Ltd., priority 2009, dated 2014).

For assay [1], the target named is T1, angiotensin II type 1 receptor (Oryctolagus cuniculus, UniProt P34976).
T1 construct: By using a specimen of isolated rabbit blood vessels; from tissue; host or cells: rabbit (New Zealand White) thoracic aorta ring
T1 sequence (P34976 1-359): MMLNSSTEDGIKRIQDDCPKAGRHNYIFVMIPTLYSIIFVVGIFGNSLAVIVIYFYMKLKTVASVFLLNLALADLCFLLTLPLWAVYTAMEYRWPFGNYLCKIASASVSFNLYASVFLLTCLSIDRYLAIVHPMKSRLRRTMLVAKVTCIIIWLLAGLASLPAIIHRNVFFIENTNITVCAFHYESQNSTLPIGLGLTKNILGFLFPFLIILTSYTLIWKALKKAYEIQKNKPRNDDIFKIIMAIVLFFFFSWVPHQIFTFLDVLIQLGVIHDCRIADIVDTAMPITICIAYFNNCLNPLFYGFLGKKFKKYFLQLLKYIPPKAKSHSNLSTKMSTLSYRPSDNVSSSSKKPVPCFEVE
Description: Angiotensin II receptor antagonistic activity in isolated rabbit blood vessels (thoracic aorta ring, angiotensin II-induced contraction). It is filed as cell-based. As to conditions: 0.1 μM test compound, angiotensin II (10 nM)-induced contraction, read-out: Angiotensin II activity inhibitiom rate (%) at 0.1 μM concentration.
Description: By using a specimen of isolated rabbit blood vessels, antagonistic activity of the compounds of the invention against angiotensin II type 1 receptor was estimated from a dose-response curve of angiotensin II-induced blood vessel contraction. Specifically, the specimen of thoracic aorta ring of a rabbit (New Zealand White: male, 2.4 to 3.0 kg) was suspended in a magnus bath filled with Krebs-Henseleite buffer (composition: 118 mM NaCl, 4.7 mM KCl, 2.55 mM CaCl2, 1.18 mM MgSO4, 1.18 mM KH2PO4, 24.88 mM NaHCO3, and 11.1 mM D-glucose), and angiotensin II (10 nM)-induced contraction was obtained in the presence of the compounds of each test (1 nmol/L to 10 μmol/L). During the measurement, the inside temperature of the magnus bath was maintained at 37° C. and the bath was continuously ventilated with a sufficient amount of mixed gas (95% O2 and 5% CO2). The angiotensin II-induced contraction was converted into a relative value (%) that is based on the angiotensin II (0.1 μM)-induced contraction in the absence of the compounds of each example.

A further assay deals with T2, human PPARγ2 (Homo sapiens, UniProt P37231).
T2 construct: the amino acids 182 to 505 of human PPARγ2; expressed in transfected cells; host or cells: COS7 cells (African green monkey kidney)
T2 sequence (P37231 182-505): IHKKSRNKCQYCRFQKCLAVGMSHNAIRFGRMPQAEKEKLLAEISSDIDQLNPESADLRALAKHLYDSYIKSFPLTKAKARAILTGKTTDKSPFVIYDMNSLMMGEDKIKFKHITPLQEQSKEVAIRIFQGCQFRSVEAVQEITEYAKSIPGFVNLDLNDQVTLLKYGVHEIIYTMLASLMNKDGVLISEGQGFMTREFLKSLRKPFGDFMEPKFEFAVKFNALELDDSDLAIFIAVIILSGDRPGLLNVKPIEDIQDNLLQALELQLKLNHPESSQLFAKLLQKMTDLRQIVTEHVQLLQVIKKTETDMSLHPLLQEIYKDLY
The assay can be described thus: PPARγ activation activity, Gal4-PPARγ2 LBD luciferase transfection assay using COS7 cells. As to conditions: Gal4-human PPARγ2 LBD chimera, 16 hours, rosiglitazone = 100%. Type of assay: cell-based. The protocol: The agonistic activity of the compounds of the invention on PPARγ was measured based on the transfection assay using COS7 cells (DS Pharma Biomedical Co., Ltd., Osaka, Japan), which are the cell line derived from the kidney of the African green monkey. COS7 cells were cultured under 5% CO2 concentration, and DMEM medium containing 10% fetal bovine serum, glutamic acid, and antibiotics was used as a medium.
As an expression vector, a chimera in which DNA binding domain of Gal4, which is a yeast transcription factor, and ligand binding domain of human PPARγ2 are fused, i.e., a fused product between the amino acids 1 to 147 of Gal4 transcription factor and the amino acids 182 to 505 of human PPARγ2, was used. Furthermore, as a reporter vector, a firefly luciferase containing five copies of Gal4 recognition sequence in the promoter region was used. Plasmid transfection to the cells was performed according to a method which uses jetPEI (trade name, manufactured by Funakoshi Co., Ltd., Tokyo, Japan). Furthermore, β-galactosidase expression vector was employed as an internal standard.
After the transfection of the cells, the medium was replaced with a DMEM medium (containing 1% serum) added with the test compound, and the cells were further cultured for 16 hours. After that, the luciferase activity and β-galactosidase activity in the cell lysis solution were measured.
For the present test, dimethyl sulfoxide (DMSO) was used for dissolution and dilution of the test compounds, and during the cell treatment, the DMSO concentration in DMEM medium (containing 1% serum) was adjusted to 0.1%. As a positive compound, rosiglitazone (trade name, manufactured by ALEXIS Corporation, Switzerland) was used. The luciferase activity (%) of the test compounds (1 to 30 μmol/L) was calculated when the luciferase activity of rosiglitazone (3 to 10 μmol/L) is 100% and the luciferase activity in the absence of the test compound is 0%. The 50% effective concentration of the test compound (EC50, 50% effect concentration) was calculated by using SAS Preclinical Package Ver 5.0 (trade name, manufactured by SAS institute Japan Co., Tokyo, Japan), which is a statistical analysis program.
EC50 values of these compounds are described in Table 2. […] Under the same condition, the PPARγ activation activity of telmisartan, i.e., EC50, was 1 to 5 μM.

As usually defined, the EC50 is the concentration giving half of the maximal effect. Higher therefore signals a less potent agent.

Consider `CCCCc1nc(C)n(-c2ccccn2)c(=O)c1Cc1ccc(-c2ccccc2-c2noc(=O)[nH]2)nc1` [Example 14, 3-{2-{5-{[4-butyl-2-methyl-6-oxo-1-(pyridin-2-yl)-1,6-dihydropyrimidin-5-yl]methyl}pyridin-2-yl}phenyl}-1,2,4-oxadiazol-5(4H)-one], for which the inhibition at 0.1 µM in assay [1] stood at 59.3%.

Regarding `CCCCc1nc(C)n(-c2ncc(OC)cn2)c(=O)c1Cc1ccc(-c2ccccc2-c2nnn[nH]2)nc1` [Example 1, 5-{{6-[2-(1H-tetrazol-5-yl)phenyl]pyridin-3-yl}methyl}-6-butyl-3-(5-methoxypyrimidin-2-yl)-2-methylpyrimidin-4(3H)-one], the inhibition at 0.1 µM in assay [1] turned out to be 100%.

Consider `CCCCc1nc(C)n(-c2ncc(OCCS(C)(=O)=O)cn2)c(=O)c1Cc1ccc(-c2ccccc2-c2noc(=O)[nH]2)nc1` [Example 29, 3-{2-{5-{{4-butyl-2-methyl-1-{5-[2-(methylsulfonyl)ethoxy]pyrimidin-2-yl}-6-oxo-1,6-dihydropyrimidin-5-yl}methyl}pyridin-2-yl}phenyl}-1,2,4-oxadiazol-5(4H)-one], for which the inhibition at 0.1 µM in assay [1] amounted to 96.3%.

In the case of `CCCCc1nc(C)n(-c2ncc(OCCSC)cn2)c(=O)c1Cc1ccc(-c2ccccc2-c2noc(=O)[nH]2)nc1` [Example 28, 3-{2-{5-{{4-butyl-2-methyl-1-{5-[2-(methylthio)ethoxy]pyrimidin-2-yl}-6-oxo-1,6-dihydropyrimidin-5-yl}methyl}pyridin-2-yl}phenyl}-1,2,4-oxadiazol-5(4H)-one], the inhibition at 0.1 µM in assay [1] was determined as 86.5%.

The compound `CCCCc1nc(C)n(-c2cc(C)ccn2)c(=O)c1Cc1ccc(-c2ccccc2-c2noc(=O)[nH]2)nc1` [Example 15, 3-{2-{5-{[4-butyl-2-methyl-1-(4-methylpyridin-2-yl)-6-oxo-1,6-dihydropyrimidin-5-yl]methyl}pyridin-2-yl}phenyl}-1,2,4-oxadiazol-5(4H)-one] had an EC50 at human PPARγ2 of 3.61 µM. For the same compound, the inhibition at 0.1 µM in assay [1] amounted to 78.3%.

On to `CCCCc1nc(C)n(-c2ncc(OCCSC)cn2)c(=O)c1Cc1ccc(-c2ccccc2-c2nnn[nH]2)nc1` [Example 12, 5-{{6-[2-(1H-tetrazol-5-yl)phenyl]pyridin-3-yl}methyl}-6-butyl-2-methyl-3-{5-[2-(methylthio)ethoxy]pyrimidin-2-yl}pyrimidin-4(3H)-one], for which the inhibition at 0.1 µM in assay [1] is 100%.

`CCCCc1nc(C2CC2)n(-c2ncc(OC)cn2)c(=O)c1Cc1ccc(-c2ccccc2-c2noc(=O)[nH]2)nc1` [Example 22, 3-{2-{5-{[4-butyl-2-cyclopropyl-1-(5-methoxypyrimidin-2-yl)-6-oxo-1,6-dihydropyrimidin-5-yl]methyl}pyridin-2-yl}phenyl}-1,2,4-oxadiazol-5(4H)-one] gave an EC50 on human PPARγ2 of 1.55 µM. For the same compound, in assay [1], the inhibition at 0.1 µM is 59.5%.

Consider `CCCCc1nc(C)n(-c2ncc(OCC)cn2)c(=O)c1Cc1ccc(-c2ccccc2-c2noc(=O)[nH]2)nc1` [Example 17, 3-{2-{5-{[4-butyl-1-(5-ethoxypyrimidin-2-yl)-2-methyl-6-oxo-1,6-dihydropyrimidin-5-yl]methyl}pyridin-2-yl}phenyl}-1,2,4-oxadiazol-5(4H)-one], for which the EC50 on human PPARγ2 came to 3.12 µM. Besides, the inhibition at 0.1 µM in assay [1] is 52.1%.

Turning to `CCCCc1nc(C)n(-c2ncc(OCCS(C)(=O)=O)cn2)c(=O)c1Cc1ccc(-c2ccccc2-c2nnn[nH]2)nc1` [Example 13, 5-{{6-[2-(1H-tetrazol-5-yl)phenyl]pyridin-3-yl}methyl}-6-butyl-2-methyl-3-{5-[2-(methylsulfonyl)ethoxy]pyrimidin-2-yl}pyrimidin-4(3H)-one], the inhibition at 0.1 µM in assay [1] is 100%.

Consider `CCCCc1nc(C)n(-c2ncc(OC)cn2)c(=O)c1Cc1ccc(-c2ccccc2-c2noc(=O)[nH]2)nc1` [Example 16, 3-{2-{5-{[4-butyl-1-(5-methoxypyrimidin-2-yl)-2-methyl-6-oxo-1,6-dihydropyrimidin-5-yl]methyl}pyridin-2-yl}phenyl}-1,2,4-oxadiazol-5(4H)-one], for which the inhibition at 0.1 µM in assay [1] is 72.9%.

With `CCCCc1nc(C)n(-c2ncc(OCC)cn2)c(=O)c1Cc1ccc(-c2ccccc2-c2nnn[nH]2)nc1` [Example 2, 5-{{6-[2-(1H-tetrazol-5-yl)phenyl]pyridin-3-yl}methyl}-6-butyl-3-(5-ethoxypyrimidin-2-yl)-2-methylpyrimidin-4(3H)-one], the inhibition at 0.1 µM in assay [1] was 90.8%.
